Assay results as given in ChEMBL document CHEMBL6134848, “Deuteration Strategy-Inspired Design of Novel Diarylpyrimidine Derivatives as Potent Non-Nucleoside Reverse Transcriptase Inhibitors Featuring Improved Efficacy, Selectivity, and Druggability” (J Med Chem, 2025).

Experiments:
[1] = Tmax in Sprague-Dawley rat at 1 mg/kg, iv measured for 0.083 to 24 hrs by LC-MS/MS analysis; assay type: ADME, organism-based; details: in vivo, time 0.083-24 hrs
Cytochrome P450 3A4 = Cytochrome P450 3A4 (Homo sapiens, UniProt P08684); assay: Inhibition of CYP3A4 in human liver microsomes using testosterone as substrate incubated for 15 to 45 mins by; assay type: ADME, Microsome
[2] = Oral bioavailability in Sprague-Dawley rat at 10 mg/kg measured for 0.083 to 24 hrs by LC-MS/MS analysis; assay type: ADME, organism-based; details: in vivo, time 0.083-24 hrs
[3] = system: Human immunodeficiency virus 1; assay: Potency index, ratio of ETR EC50 to test compound EC50 for antiviral activity against wild-type HIV-1 IIIB infected in human MT4 cells assessed as protection against virus-induced cytopathicity measured after 5 days post-infection by MTT assay; assay type: functional
[4] = Acute toxicity in ICR mouse assessed as pathological change in heart at 2000 mg/kg, IG measured for 14 days by H and E staining based analysis; assay type: organism-based; details: in vivo, po, 336 h, time 14 day
[5] = Protein binding in human plasma at 1 uM incubated for 6 hrs; assay type: ADME, cell-free; details: read-out: PPB (converted)
[6] = Protein binding in human plasma assessed as unbound fraction at 1 uM incubated for 6 hrs; assay type: ADME, cell-free
[7] = Drug metabolism in rat liver microsomes assessed as metabolic fraction at 1 uM measured up to 45 mins by LC/MS/MS analysis; assay type: ADME, Microsome; details: 0.75 h
[8] = Acute toxicity in ICR mouse assessed as pathological change in lung at 2000 mg/kg, IG measured for 14 days by H and E staining based analysis; assay type: organism-based; details: in vivo, po, 336 h, time 14 day
[9] = Protein binding in human plasma assessed as drug recovery rate at 1 uM incubated for 6 hrs; assay type: ADME, cell-free; details: read-out: Drug recovery
[10] = Acute toxicity in ICR mouse assessed as pathological change in brain at 2000 mg/kg, IG measured for 14 days by H and E staining based analysis; assay type: organism-based; details: in vivo, po, 336 h, time 14 day
[11] = Stability in human plasma assessed as compound remaining at 1 uM measured after 2 hrs by LC-MS/MS analysis; assay type: ADME, cell-free; details: read-out: Stability
Cytochrome P450 2B6 = target: T1, Cytochrome P450 2B6 (Homo sapiens, UniProt P20813); assay: Inhibition of CYP2B6 in human liver microsomes using bupropion as substrate incubated for 15 to 45 mins by; assay type: ADME, Microsome
T1 sequence (P20813 whole entry): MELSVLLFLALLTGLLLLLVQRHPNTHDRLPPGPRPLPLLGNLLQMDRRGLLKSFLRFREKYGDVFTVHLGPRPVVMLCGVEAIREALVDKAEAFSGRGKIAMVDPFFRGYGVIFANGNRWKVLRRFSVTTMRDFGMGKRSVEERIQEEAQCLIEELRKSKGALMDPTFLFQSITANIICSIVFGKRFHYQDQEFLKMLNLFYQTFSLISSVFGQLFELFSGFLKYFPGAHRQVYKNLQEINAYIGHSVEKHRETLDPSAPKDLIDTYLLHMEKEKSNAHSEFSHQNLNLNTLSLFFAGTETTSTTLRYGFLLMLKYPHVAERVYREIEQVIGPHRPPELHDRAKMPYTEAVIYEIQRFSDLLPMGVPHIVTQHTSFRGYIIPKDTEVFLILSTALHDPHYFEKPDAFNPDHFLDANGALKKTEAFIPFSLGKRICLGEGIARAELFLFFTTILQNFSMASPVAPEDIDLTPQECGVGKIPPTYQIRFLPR

[12] = Acute toxicity in ICR mouse assessed as pathological change in kidney at 2000 mg/kg, IG measured for 14 days by H and E staining based analysis; assay type: organism-based; details: in vivo, po, 336 h, time 14 day
[13] = AUC (0 to t) in Sprague-Dawley rat at 1 mg/kg, iv measured for 0.083 to 24 hrs by LC-MS/MS analysis; assay type: ADME, organism-based; details: in vivo, time 0.083-24 hrs
[14] = MRT (0 to infinity) in Sprague-Dawley rat at 1 mg/kg, iv measured for 0.083 to 24 hrs by LC-MS/MS analysis; assay type: ADME, organism-based; details: in vivo, time 0.083-24 hrs
[15] = Acute toxicity in ICR mouse assessed as body weight change at 2000 mg/kg, IG measured for 14 days; assay type: organism-based; details: in vivo, po, 336 h, time 14 day
[16] = system: Human immunodeficiency virus 1; assay: Antiviral activity against drug-resistant HIV-1 harboring RT F227L/V106A mutant infected in human MT4 cells assessed as protection against virus-induced cytopathicity measured after 5 days post-infection by MTT assay; assay type: functional, organism-based; details: Human immunodeficiency virus 1, MT4, 120 h
[17] = AUC (0 to infinity) in Sprague-Dawley rat at 1 mg/kg, iv measured for 0.083 to 24 hrs by LC-MS/MS analysis; assay type: ADME, organism-based; details: in vivo, time 0.083-24 hrs
[18] = Metabolic stability in rat liver microsomes assessed as half life at 1 uM measured up to 45 mins by LC/MS/MS analysis; assay type: ADME, Microsome; details: 0.75 h
[19] = AUC (0 to t) in Sprague-Dawley rat at 10 mg/kg, po measured for 0.083 to 24 hrs by LC-MS/MS analysis; assay type: ADME, organism-based; details: in vivo, time 0.083-24 hrs
[20] = system: Human immunodeficiency virus 1; assay: Antiviral activity against drug-resistant HIV-1 harboring RT Y188L mutant infected in human MT4 cells assessed as protection against virus-induced cytopathicity measured after 5 days post-infection by MTT assay; assay type: functional, organism-based; details: Human immunodeficiency virus 1, MT4, 120 h
[21] = Selectivity index, ratio of CC50 for cytotoxicity against human MT4 cells to EC50 for antiviral activity against wild-type HIV-1 IIIB infected in human MT4 cells; assay type: toxicity, cell-based; details: read-out: Ratio CC50/EC50
[22] = system: Human immunodeficiency virus 1; assay: Antiviral activity against drug-resistant HIV-1 harboring RT Y181C mutant infected in human MT4 cells assessed as protection against virus-induced cytopathicity measured after 5 days post-infection by MTT assay; assay type: functional, organism-based; details: Human immunodeficiency virus 1, MT4, 120 h
[23] = Acute toxicity in ICR mouse assessed as pathological change in spleen at 2000 mg/kg, IG measured for 14 days by H and E staining based analysis; assay type: organism-based; details: in vivo, po, 336 h, time 14 day
[24] = Stability in human plasma assessed as compound remaining at 1 uM measured after 3 hrs by LC-MS/MS analysis; assay type: ADME, cell-free; details: read-out: Stability
[25] = AUC (0 to infinity) in Sprague-Dawley rat at 10 mg/kg, po measured for 0.083 to 24 hrs by LC-MS/MS analysis; assay type: ADME, organism-based; details: in vivo, time 0.083-24 hrs
[26] = Half life in Sprague-Dawley rat at 1 mg/kg, iv measured for 0.083 to 24 hrs by LC-MS/MS analysis; assay type: ADME, organism-based; details: in vivo, time 0.083-24 hrs
[27] = system: Human immunodeficiency virus 1; assay: Antiviral activity against drug-resistant HIV-1 harboring RT RES056 mutant infected in human MT4 cells assessed as protection against virus-induced cytopathicity measured after 5 days post-infection by MTT assay; assay type: functional, organism-based; details: Human immunodeficiency virus 1, MT4, 120 h
[28] = Acute toxicity in ICR mouse assessed as animal mortality at 2000 mg/kg, IG measured for 14 days; assay type: organism-based; details: in vivo, po, 336 h, time 14 day
[29] = Acute toxicity in ICR mouse assessed as drug tolerance at 2000 mg/kg, IG measured for 14 days; assay type: organism-based; details: in vivo, po, 336 h, time 14 day
[30] = Stability in human plasma assessed as compound remaining at 1 uM measured after 1 hr by LC-MS/MS analysis; assay type: ADME, cell-free; details: read-out: Stability
Cytochrome P450 2D6 = Cytochrome P450 2D6 (Homo sapiens, UniProt P10635); assay: Inhibition of CYP2D6 in human liver microsomes using dextromethorphan as substrate incubated for 15 to 45 mins by; assay type: ADME, Microsome
[31] = Cytotoxicity against human MT4 cells assessed as reduction in cell viability by MTT assay; assay type: toxicity, cell-based

Chain of Cytochrome P450 2D6 (P10635 whole entry): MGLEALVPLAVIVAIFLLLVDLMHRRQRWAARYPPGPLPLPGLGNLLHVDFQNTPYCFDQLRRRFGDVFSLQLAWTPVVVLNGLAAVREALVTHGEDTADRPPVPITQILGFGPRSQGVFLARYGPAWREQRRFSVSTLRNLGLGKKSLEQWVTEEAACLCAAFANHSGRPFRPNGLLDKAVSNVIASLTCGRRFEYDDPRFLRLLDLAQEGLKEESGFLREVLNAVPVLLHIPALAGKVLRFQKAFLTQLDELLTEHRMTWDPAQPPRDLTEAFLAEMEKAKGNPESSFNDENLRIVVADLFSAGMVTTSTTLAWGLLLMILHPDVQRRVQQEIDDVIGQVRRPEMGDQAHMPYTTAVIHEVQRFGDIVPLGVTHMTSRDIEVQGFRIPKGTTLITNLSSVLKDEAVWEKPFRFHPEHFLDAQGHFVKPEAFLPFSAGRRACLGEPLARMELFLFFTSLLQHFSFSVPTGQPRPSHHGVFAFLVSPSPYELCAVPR
Chain of Cytochrome P450 3A4 (P08684 whole entry): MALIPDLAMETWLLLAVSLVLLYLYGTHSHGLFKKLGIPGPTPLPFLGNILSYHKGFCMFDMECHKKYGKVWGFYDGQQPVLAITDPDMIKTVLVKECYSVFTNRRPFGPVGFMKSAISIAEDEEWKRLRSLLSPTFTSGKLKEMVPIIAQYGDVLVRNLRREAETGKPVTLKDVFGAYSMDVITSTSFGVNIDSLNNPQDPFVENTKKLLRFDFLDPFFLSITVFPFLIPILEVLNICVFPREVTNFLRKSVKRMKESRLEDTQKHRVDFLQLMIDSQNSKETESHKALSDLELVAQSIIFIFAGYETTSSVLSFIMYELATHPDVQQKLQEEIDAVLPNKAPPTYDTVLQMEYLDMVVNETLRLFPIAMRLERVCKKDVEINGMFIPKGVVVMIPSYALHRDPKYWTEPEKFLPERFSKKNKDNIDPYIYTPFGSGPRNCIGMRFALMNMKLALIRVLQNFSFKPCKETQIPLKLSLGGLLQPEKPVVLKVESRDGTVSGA

Structure (SMILES): [2H]C([2H])([2H])c1cc(C#N)cc(C([2H])([2H])[2H])c1Oc1nc(NC2CCN(Cc3ccc(S(N)(=O)=O)cc3)CC2)nc2ccsc12
- Tmax [1]: 4.8 min
- IC50 (Cytochrome P450 3A4): > 10000 nM
- bioavailability [2]: 29%
- Ratio EC50 [3]: 3.3
- Activity [4]: Non-toxic
- fraction unbound at 6 h, 1 µM [5]: 0.005
- Fu [6]: 0.453%
- Fm [7]: 28.9%
- Activity [8]: Non-toxic
- recovery at 6 h, 1 µM [9]: 79.4%
- Activity [10]: Non-toxic
- remaining at 2 h, 1 µM [11]: 92.7%
- IC50 (Cytochrome P450 2B6): > 10000 nM
- Activity [12]: Non-toxic
- AUC(0-t) [13]: 727 ng·h/mL
- MRT inf [14]: 50.4 min
- Activity [15]: Non-toxic
- EC50 [16]: 4.46 nM
- AUC(0-inf) [17]: 729 ng·h/mL
- t1/2 [18]: 19.2 min
- AUC(0-t) [19]: 1720 ng·h/mL
- EC50 [20]: 5.18 nM
- selectivity ratio [21]: > 227000
- EC50 [22]: 5.86 nM
- Activity [23]: Non-toxic
- remaining at 3 h, 1 µM [24]: 92.2%
- AUC(0-inf) [25]: 1800 ng·h/mL
- half-life [26]: 58.2 min
- EC50 [27]: 75.1 nM
- Activity [28]: Non-toxic
- Activity [29]: Non-toxic
- remaining at 1 h, 1 µM [30]: 96.5%
- IC50 (Cytochrome P450 2D6): > 10000 nM
- CC50 [31]: > 225000 nM
